Results on 15 compounds are retold here after ChEMBL document CHEMBL4024742, “Pharmaceutical Approaches to Target Antibiotic Resistance Mechanisms” (J Med Chem, 2017).

A short description of test [1]: Inhibition of Escherichia coli SHV-1 using nitrocefin as substrate preincubated for 5 mins followed by substrate addition.
Test [2] in a line: Inhibition of Escherichia coli KPC-2 using nitrocefin as substrate preincubated for 5 mins followed by substrate addition.
Test [3] deals with Staphylococcus epidermidis. Put plainly: Antibacterial activity against planktonic Staphylococcus epidermidis RP62A after 24 hrs by broth microdilution method. The format is functional.
Test [4] concerns Staphylococcus aureus. In words: Antibacterial activity against planktonic Staphylococcus aureus ATCC 43866 after 24 hrs by broth microdilution method. The note with it: ATCC 43866, 24 h. It counts as functional.
In test [5] the test system is Staphylococcus aureus. Put plainly: Inhibition of biofilm formation in Staphylococcus aureus ATCC 29213 at 6.2 ug/ml after 24 hrs by MTT assay. It counts as functional. The note with it: ATCC 29213, 24 h. (In general: Formazan colour is commonly taken as a measure of viable cells.)
Test [6] has as its system Staphylococcus aureus. Put plainly: Inhibition of biofilm formation in Staphylococcus aureus ATCC 43866 at 25 ug/ml after 24 hrs by MTT assay. It counts as functional. The note with it: ATCC 43866, 24 h.
For test [7], the system named is Staphylococcus aureus. In words: Antibacterial activity against planktonic Staphylococcus aureus ATCC 29213 after 24 hrs by broth microdilution method. The format is functional. The note with it: ATCC 29213, 24 h. A general note: Broth dilution looks for growth in wells or tubes with falling amounts of substance.
The nature of test [8]: Inhibition of bacterial AmpC using nitrocefin as substrate incubated for 5 mins followed by substrate addition by UV-vis spectrophotometer. The arrangement: species or system Bacteria.
Test [9] is described as follows: Inhibition of bacterial beta-lactamase CMY-2 using nitrocefin as substrate by spectrophotometric analysis. The arrangement: species or system Bacteria.
Test [10] deals with Escherichia coli. Put plainly: Antimicrobial activity against Escherichia coli. It counts as functional.
The test system of test [11] is Enterobacter. In words: Antimicrobial activity against Enterobacter. The format is functional.
A short description of test [12]: Inhibition of Escherichia coli PBP2.
Test [13] deals with Pseudomonas aeruginosa. In words: Antimicrobial activity against Pseudomonas aeruginosa. It counts as functional.
A short description of test [14]: Inhibition of bacterial beta-lactamase KPC-2 using nitrocefin as substrate by spectrophotometric analysis. The arrangement: species or system Bacteria.
The nature of test [15]: Inhibition of bacterial beta-lactamase TEM-1 using nitrocefin as substrate by spectrophotometric analysis. The arrangement: species or system Bacteria.
Test [16] can be described thus: Inhibition of bacterial beta-lactamase CTX-M-9 using nitrocefin as substrate by spectrophotometric analysis. The arrangement: species or system Bacteria.
A short description of test [17]: Inhibition of Mycobacterium tuberculosis Eis.
The nature of test [18]: Inhibition of bacterial AmpC. The arrangement: species or system Bacteria.
Test [19] relates to Escherichia coli. In words: Potentiation of cefotaxime induced-antimicrobial activity against Escherichia coli (reference value: 8 to 128 ug/ml). It counts as functional.
Test [20] concerns Pseudomonas aeruginosa. Put plainly: Antibiofilm activity against wild-type Pseudomonas aeruginosa PAO1 after 24 hrs by crystal violet staining based assay. It counts as functional. The note with it: PAO1, 24 h.
The test system of test [21] is Staphylococcus aureus. Put plainly: Antibiofilm activity against methicillin-resistant Staphylococcus aureus BAA-44 at 100 uM after 24 hrs by crystal violet staining based assay. It counts as functional. The note with it: BAA-44, 24 h.
The test system of test [22] is Staphylococcus aureus. Put plainly: Antibiofilm activity against methicillin-resistant Staphylococcus aureus BAA-44 after 24 hrs by crystal violet staining based assay. The note with it: BAA-44, 24 h. It counts as functional.
For a further test, the system named is Acinetobacter baumannii. In words: Antibiofilm activity against multi drug-resistant Acinetobacter baumannii ATCC 19606 assessed as biofilm dispersion after 24 hrs by crystal violet staining based assay. The note with it: ATCC 19606 = CIP 70.34 = JCM 6841, 24 h. The format is functional.
Test [23] relates to Escherichia coli. Put plainly: Potentiation of florfenicol induced-antimicrobial activity against multi drug-resistant Escherichia coli AG112 assessed as fold reduction in florfenicol MIC at 100 ug/ml by broth microdilution method. The format is functional.
Test [24] deals with Escherichia coli. In words: Potentiation of ciprofloxacin induced-antimicrobial activity against multi drug-resistant Escherichia coli AG112 assessed as fold reduction in ciprofloxacin MIC at 100 ug/ml by broth microdilution method. It counts as functional.
Test [25] concerns Escherichia coli. In words: Potentiation of tetracycline induced-antimicrobial activity against multi drug-resistant Escherichia coli AG112 assessed as fold reduction in tetracycline MIC at 100 ug/ml by broth microdilution method. It counts as functional.
Test [26] has as its system Staphylococcus aureus. In words: Antibiofilm activity against methicillin-resistant Staphylococcus aureus BAA-1770. It counts as functional.
The test system of test [27] is Staphylococcus aureus. Put plainly: Antibiofilm activity against methicillin-resistant Staphylococcus aureus BAA-1765. The format is functional.
Test [28] relates to Staphylococcus aureus. In words: Antibiofilm activity against methicillin-resistant Staphylococcus aureus BAA-43300. The format is functional.
Test [29] deals with Escherichia coli. Put plainly: Potentiation of 0.016 ug/ml ciprofloxacin induced-antimicrobial activity against Escherichia coli AB1157 assessed as fold reduction in cell viability at 3.13 uM after 4 hrs by time kill assay. It counts as functional.
The subject of test [30] is Escherichia coli. In words: Potentiation of ciprofloxacin induced-antimicrobial activity against Escherichia coli AB1157 assessed as fold reduction in ciprofloxacin MIC at 12.5 uM by broth microdilution method. It counts as functional.
In test [31] the test system is Escherichia coli. In words: Potentiation of levofloxacin induced-antimicrobial activity against Escherichia coli AB1157 assessed as fold reduction in levofloxacin MIC at 12.5 uM by broth microdilution method. The format is functional.
Test [32] concerns Escherichia coli. Put plainly: Potentiation of piperacillin induced-antimicrobial activity against Escherichia coli AB1157 assessed as fold reduction in piperacillin MIC at 12.5 uM by broth microdilution method. It counts as functional.
In test [33] the test system is Enterobacter. Put plainly: Antibacterial activity against ESBL/KPC-producing Enterobacter assessed as potentiation of aztreonam induced-antimicrobial activity by measuring aztreonam MIC (Rvb > 16 ug/ml). It counts as functional.
The subject of test [34] is Staphylococcus aureus. In words: Inhibition of biofilm formation in Staphylococcus aureus 702 at 0.045 ug/ml after 24 hrs by MTT assay. It counts as functional. The note with it: Staphylococcus aureus, 702, 24 h.
The subject of test [35] is Staphylococcus aureus. Put plainly: Inhibition of biofilm formation in Staphylococcus aureus 657 at 0.045 ug/ml after 24 hrs by MTT assay. The note with it: Staphylococcus aureus, 657, 24 h. The format is functional.
Test [36] deals with Staphylococcus aureus. In words: Inhibition of biofilm formation in Staphylococcus aureus ATCC 29213 at 0.045 ug/ml after 24 hrs by MTT assay. It counts as functional. The note with it: ATCC 29213, 24 h.
Test [37] has as its system Staphylococcus epidermidis. In words: Inhibition of biofilm formation in Staphylococcus epidermidis RP62A at 0.045 ug/ml after 24 hrs by MTT assay. It counts as functional.
In test [38] the test system is Staphylococcus aureus. Put plainly: Inhibition of biofilm formation in Staphylococcus aureus ATCC 25923 at 0.045 ug/ml after 24 hrs by MTT assay. The format is functional. The note with it: ATCC 25923, 24 h.
Test [39] deals with Staphylococcus epidermidis. In words: Inhibition of biofilm formation in Staphylococcus epidermidis DSM 3269 at 0.045 ug/ml after 24 hrs by MTT assay. The format is functional. The note with it: DSM 3269, 24 h.
The subject of test [40] is Staphylococcus aureus. In words: Antibacterial activity against glycopeptide-intermediate Staphylococcus aureus by broth microdilution method. It counts as functional.
Test [41] deals with Staphylococcus aureus. In words: Potentiation of ciprofloxacin induced-antimicrobial activity against Staphylococcus aureus ATCC 29213 assessed as fold reduction in ciprofloxacin MIC at 31.25 uM by broth microdilution method. It counts as functional.
Test [42] has as its target T1, Quinolone resistance protein NorA (Staphylococcus aureus, UniProt P0A0J7).
T1 sequence (P0A0J7 whole entry): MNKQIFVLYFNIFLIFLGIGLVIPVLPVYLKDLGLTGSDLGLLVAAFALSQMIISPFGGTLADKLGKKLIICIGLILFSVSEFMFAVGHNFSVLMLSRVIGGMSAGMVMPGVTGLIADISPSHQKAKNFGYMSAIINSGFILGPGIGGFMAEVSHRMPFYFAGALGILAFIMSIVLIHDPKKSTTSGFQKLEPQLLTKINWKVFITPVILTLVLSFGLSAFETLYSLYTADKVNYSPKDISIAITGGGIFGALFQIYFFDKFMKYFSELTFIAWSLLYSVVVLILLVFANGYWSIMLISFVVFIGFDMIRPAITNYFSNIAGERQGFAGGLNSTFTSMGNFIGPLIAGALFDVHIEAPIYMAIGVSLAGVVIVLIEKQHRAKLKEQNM
In words: Inhibition of Staphylococcus aureus 1199B NorA assessed as reduction in ethidium bromide efflux by fluorescence assay.

The subject of test [43] is Staphylococcus aureus. In words: Antibacterial activity against methicillin-sensitive Staphylococcus aureus by broth microdilution method. It counts as functional.
A short description of test [44]: Inhibition of bacterial SHV by measuring nitrocefin degradation. The arrangement: species or system Bacteria.
The nature of test [45]: Inhibition of bacterial CMY by measuring nitrocefin degradation. The arrangement: species or system Bacteria.
Test [46] is described as follows: Inhibition of bacterial CTX-M by measuring nitrocefin degradation. The arrangement: species or system Bacteria.
The nature of test [47]: Inhibition of bacterial KPC by measuring nitrocefin degradation. The arrangement: species or system Bacteria.

Converted amounts (≈) assume the structure as drawn.

A word on the IC50: it is the concentration needed to halve the response being measured. One may read the MIC as the lowest concentration found to suppress growth. In general, inhibition refers to the change of the read-out against control, counted positive when it falls. For orientation: Ki means the equilibrium dissociation constant of an inhibitor or competing ligand from its target. Read a low Ki as a stronger hold on the target.

With `O=C(Cc1cccs1)NC(Cn1cc(C(=O)O)nn1)B(O)O` (centres undefined), the IC50 in test [1] came out at 0.13 µM; in test [2], 0.084 µM.
Take `Cc1nn(C)c([N-]C(=O)c2ccc([N+](=O)[O-])cc2)c1[N+]#N`: the MIC (in test [3]; against Staphylococcus aureus [4]; in the test with Staphylococcus aureus [7]) was 1.5 to 12.5 µg/mL (≈ 5.24 to 43.7 µM) in each case. This compound also had an inhibition at 6.2 µg/mL in the test with Staphylococcus aureus [5] of 86.5%. For the same compound, the inhibition at 25 µg/mL in the test on Staphylococcus aureus [6] fell in the range of 69 to 96%.
`O=C(Cc1cccs1)N[C@H](B(O)O)c1cccc(C(=O)O)c1` gave a Ki in test [8] of 0.001 µM.
`CC(=O)NNC(=O)[C@@H]1CC[C@@H]2CN1C(=O)N2OS(=O)(=O)[O-].[Na+]`: the IC50 in test [9] was 0.008 to 0.327 µM; in test [12] it was 3.2 µM; in test [14] it was 0.008 to 0.327 µM; in test [15], 0.008 to 0.327 µM; in test [16] it was 0.008 to 0.327 µM. The minimum inhibitory concentration (MIC) in the test with Escherichia coli [10], in the test with Enterobacter [11] and with Pseudomonas aeruginosa [13] was not above 2 µg/mL each time.
Consider `O=C(C[n+]1ccn2cccc2c1-c1ccccc1)c1ccccc1`, for which, in [17], the half-maximal inhibitory concentration (IC50) is 0.188 µM.
The compound `O=S(=O)(NCB(O)O)c1ccc(-c2nnn[nH]2)nc1` displayed a Ki in [18] of 0.0008 µM. The minimal inhibitory concentration (MIC) in the test with Escherichia coli [19] lay in the range of 0.5 to 1 µg/mL.
In the test with Pseudomonas aeruginosa [20], `Cc1cc2nc(N)[nH]c2cc1C` displayed an IC50 of 4 µM.
Take `CCCCOc1ccc(/C=C(\C)Cn2cc(CCCCCc3c[nH]c(N)n3)nn2)cc1`: in the test with Staphylococcus aureus [21], the inhibition at 100 µM is more than 94%. Besides, the values for the 50% inhibitory concentration (IC50) in the test on Staphylococcus aureus [22] and with Acinetobacter baumannii were 8.55 µM and 44.7 µM, respectively.
For the compound `c1ccc2c(CN3CCNCC3)cccc2c1`, the “fold change (FC)” value with Escherichia coli [23], in the test with Escherichia coli [24] and with Escherichia coli [25] was 4 throughout.
For `CCCCCc1ccc(C(=O)NCCn2cc(CCCCCc3c[nH]c(NCc4ccc(CCCC)cc4)n3)nn2)cc1`, the half-inhibitory concentration (IC50) in the test on Staphylococcus aureus [26], in the test with Staphylococcus aureus [27] and with Staphylococcus aureus [28] was 16 to 18 µM in each case.
Take `CC1(C)Cc2c(C#N)c(SCCc3ccccc3)nc(N3CCOCC3)c2CO1`: the “fold change (FC)” value in the test with Escherichia coli [29] is on record as 10000; with Escherichia coli [30], 2; in the test with Escherichia coli [31], 4; in the test with Escherichia coli [32], 8.
In test [12], `NC(=O)[C@@H]1CC[C@@H]2CN1C(=O)N2OS(=O)(=O)[O-].[Na+]` [AVIBACTAM SODIUM] yielded a half-inhibitory concentration (IC50) of 63 µM. In addition, the MIC in the test with Enterobacter [33] is less than 4 µg/mL.
For `O=C(c1cc(Br)ccc1O)c1[nH]c(Cl)c(Cl)c1Br`, the inhibition at 0.045 µg/mL (with Staphylococcus aureus [34]; in the test on Staphylococcus aureus [35]; with Staphylococcus aureus [36]; in test [37]; in the test on Staphylococcus aureus [38]; in test [39]) was more than 50% each time.
In the case of `COc1cc(O)c2c(C)c(-c3ccccc3)c(=O)[nH]c2c1`, the minimum inhibitory concentration (MIC) against Staphylococcus aureus [40] and with Staphylococcus aureus [43] was 17.6 to 35.1 µg/mL (≈ 62.6 to 125 µM) throughout. Besides, in the test with Staphylococcus aureus [41], the “fold change (FC)” value was determined as 4. Besides, in [42], the IC50 amounted to 18 µM.
For `O=C(O)C[C@@H]1CC[C@H](NC(=O)Cc2cccs2)B(O)O1` [VABORBACTAM], the Ki in test [44], in test [45], in [46] and in [47] was 0.029 to 0.099 µM throughout.
